Results reported in patent US7629438B2, “Group of synthetic antimicrobial peptides” (priority 2002, dated 2009).
≈ marks a conversion by molar mass, not a printed value. Read-outs that look alike come from different tables or passages of the source. Ends that are not written are not given here. Peptide text beside a SMILES is read from it.

How the values were obtained:
[1] = system: Candida albicans ATCC10231; type: cell-based
Description: (§1) The minimum inhibitory concentrations (MIC) of the invention peptides were determined using methods described below:
(§2) The strain was recovered, inoculated into sloped medium, and grown overnight at 37° C. Typical clone selected were grown overnight at 37° C. in LB culture, diluted in the same medium to give concentrations of about 10^4-10^5 CFU/ml. The broth dilutions were set up in a 96-well microtiter plate by putting 100 μl of LB-S in every well. Added diluted peptide to every well (10 ul per well), cultured overnight at 37° C. The next day, the plates were scored for growth in the wells, and the MIC determined (In Yup Park et al.; FEBS Letters; 437 (1998) 258-262).

[2] = system: Micrococcus lutea CMCC28001; type: cell-based
Description: as §1, §2

[3] = system: Bacillus pumilus CMCC63202; type: cell-based
Description: as §1, §2

[4] = system: Pseudomonas aeruginosa CMCC10104; type: cell-based
Description: as §1, §2

[5] = system: Micrococcus lysoleikticus S1.634; type: cell-based
Description: as §1, §2

[6] = system: Escherichia coli ATCC8099; type: cell-based
Description: as §1, §2

[7] = system: Saccharomyces cerevisiae ATCC9736; type: cell-based
Description: as §1, §2

[8] = system: Klebsiella pneumoniae CMCC46117; type: cell-based
Description: as §1, §2

[9] = system: Staphylococcus aureaus CMCC26003; type: cell-based
Description: as §1, §2

S. aureus CMCC26003 = type: in vivo, Kunming mouse; settings: for Inhibitory rate: S. aureus infected mice
Description: The infection model was Staphylococcus aureus infection in the Kunming mouse.
S. aureus CMCC26003 was cultured overnight, with moderate agitation, in Veal Infusion broth (Difco) and diluted in broth containing 5% hog gastric mucin (Difco). Male Kunming mice weighing approximately 20 grams were infected intraperitoneally with 10^6-10^7 viable cells. There were 3 mice in each treatment group. Antimicrobial peptide GK-1 was administered intravenously (in 0.1 ml 5% dextrose for injection), within 10 minutes of infection. Vancomycin was administered subcutaneously.

Bacillus subtilis DB430 = test: MIC assay, 96-well microtiter plate; type: cell-based; settings: Bacillus subtilis DB430 (G+)
Description: as §1, §2

CMCC50094 = test: MIC assay, 96-well microtiter plate; type: cell-based; settings: B Subacute sclerosing panencephalitis CMCC50094 (G−)
Description: as §1, §2

[10] = system: QGY-7703 (human hepatocellular carcinoma cell)
Description: (§3) To determine the inhibitory activity of the peptides against tumor cells, a MTT colorimetric assay was performed. Fifty percent inhibitory concentrations of the antimicrobial peptides against tumor cells and normal fibroblasts were determined. Tumor cell K562 (human chronic myeloid leukemia cell), Bcap-37 (human breast cancer cell), QGY-7703 (human hepatocellular carcinoma cell), LOVO colon cancer cell, and mouse NIH-3T3 fibroblast were selected. These cells were provided by the College of Life Sciences, Fudan University. Cells were grown in RPMI1-1640, containing 10% inactivated calf serum. Cells were transferred into the 96-well plate at 2*10^4 cells/well, and 150 μl was added in each well. After the 96-well plate were incubated overnight at 37, in 5% carbon dioxide, 20 μl diluted peptide solution was added to each well, then incubated for 3 days, 20 μl MTT solution was added to each well, and incubated at 37° C. for 4 hours, 40 μl, 002M HCl solution containing 20% SDS was added to each well to solve the purple crystal, and incubated overnight at 37° C. The absorbance at 570 nm was determined.

[11] = system: K562 (human chronic myeloid leukemia cell)
Description: as §3

[12] = system: Bcap-37 (human breast cancer cell)
Description: as §3

Description for LOVO colon cancer cell: as §3
Description for mouse NIH-3T3 fibroblast: as §3

Compound | MIC [1] [µg/mL] | MIC [2] [µg/mL] | MIC [3] [µg/mL] | MIC [4] [µg/mL] | MIC [5] [µg/mL] | MIC [6] [µg/mL] | MIC [7] [µg/mL] | MIC [8] [µg/mL] | MIC [9] [µg/mL] | MIC (Bacillus subtilis DB430) [µg/mL] | MIC (CMCC50094) [µg/mL] | inhibitory activity against tumor cells (IC50) [10] [µg/mL] | inhibitory activity against tumor cells (IC50) [11] [µg/mL] | inhibitory activity against tumor cells (IC50) (LOVO colon cancer cell) [µg/mL] | inhibitory activity against tumor cells (IC50) [12] [µg/mL] | IC50 against normal fibroblasts (mouse NIH-3T3 fibroblast) [µg/mL] | further results
CC[C@H](C)[C@@H]1NC(=O)CNC(=O)[C@H]([C@@H](C)CC)NC(=O)[C@H](CCCCN)NC(=O)[C@H](CCCCN)NC(=O)[C@H](Cc2ccccc2)NC(=O)[C@H](CC(C)C)NC(=O)[C@H](CCCCN)NC(=O)[C@H](Cc2c[nH]c3ccccc23)NC(=O)[C@H](CCCCN)NC(=O)[C@H](CCCCN)NC(=O)[C@H](CC(C)C)NC(=O)[C@H](CC(C)C)NC(=O)[C@H](CCCCN)NC(=O)[C@H](CCCNC(=N)N)NC(=O)[C@H](CC(C)C)NC(=O)CNC(=O)[C@H](CCCNC(=N)N)NC(=O)[C@H](CCCCN)NC(=O)[C@H](CC(C)C)NC(=O)[C@H](CC(C)C)NC(=O)[C@H](CCCNC(=N)N)NC(=O)CNC1=O [GK-20] (cyclo(KWKLFKKIGIGRLLKRGLRKLLK); ring closure inferred) | 18 (≈ 6.49 µM) | 4 (≈ 1.44 µM) | 6 (≈ 2.16 µM) | 10 (≈ 3.6 µM) | 2 (≈ 0.721 µM) | 8 (≈ 2.88 µM) | 20 (≈ 7.21 µM) | 10 (≈ 3.6 µM) | 0.8 (≈ 0.288 µM) | – | – | – | – | – | – | – | –
CN[C@H](CC(C)C)C(=O)N[C@H]1C(=O)N[C@@H](CC(N)=O)C(=O)N[C@H]2C(=O)N[C@H]3C(=O)N[C@H](C(=O)N[C@H](C(=O)O)c4cc(O)cc(O)c4-c4cc3ccc4O)[C@H](O)c3ccc(c(Cl)c3)Oc3cc2cc(c3O[C@@H]2O[C@H](CO)[C@@H](O)[C@H](O)[C@H]2O[C@H]2C[C@](C)(N)[C@H](O)[C@H](C)O2)Oc2ccc(cc2Cl)[C@H]1O [Vancomycin] | – | – | – | – | – | – | – | – | – | – | – | – | – | – | – | – | Inhibitory rate (S. aureus CMCC26003; 0.5 mg/kg s.c.): 0%; Inhibitory rate (S. aureus CMCC26003; 1.0 mg/kg s.c.): 40%; Inhibitory rate (S. aureus CMCC26003; 2.0 mg/kg s.c.): 80%; Inhibitory rate (S. aureus CMCC26003; 4.0 mg/kg s.c.): 100%; Inhibitory rate (S. aureus CMCC26003; 8.0 mg/kg s.c.): 100%; Effectiveness against S. aureus infection (protection of infected mice) (S. aureus CMCC26003; dosage of 4.5 mg/kg): 100%
KWKLFKKIGIGRLLKRGLRKLLK [GK-1] | 8 | 2 | 0.5 | 10 | 1.0 | 1 | 14 | 2 | 0.4 | 4 | 4 | 38 | 45 | 35 | 52 | >100 | –
KWKLFKKIGIGRLLRRLLRRLLR [GK-2] | 10 | 4 | 1 | 12 | 0.8 | 0.5 | 12 | 0.8 | 0.2 | 4 | 1 | 44 | 56 | 32 | 47 | >100 | –
RFKLFKKIPRLLRRGLRKVLK [GK-19] | 16 | 10 | 10 | 4 | 4 | 2 | 12 | 2 | 1.0 | 2 | 1 | – | – | – | – | – | –
RWKLFKKIEKVGRNVRDGLIKAGPAIAVIGQAKSL [cecropin A1, reference compound] | 50 | 30 | 50 | 18 | 50 | 20 | 50 | 16 | 16 | 12 | 12 | – | – | – | – | – | –
RWRLFKRIGIGRLLKRGLR [GK-3] | 11 | 3 | 0.8 | 1.8 | 1.2 | 1.6 | 12 | 2 | 0.5 | 5 | 6 | 21 | 13 | 31 | 25 | >100 | –
